Experimental data taken from US7897781B2, “Cold menthol receptor-1 antagonists” (Janssen Pharmaceutica NV, priority 2006, dated 2011).
Where “and” joins values, the source holds several entries; their conditions need not be identical. Identical values can stand only once.

Tests used:
[1] = test system: Sprague-Dawley rats; assay: CFA-induced paw radiant heat hypersensitivity; type: in vivo, rat; conditions: 30 mg/kg p.o.
Protocol: Intraplantar injection of Complete Freund's Adjuvant (CFA) in rodents results in a long-lasting inflammatory reaction, characterized by a pronounced hypersensitivity to both thermal and mechanical stimuli. This hypersensitivity peaks between 24-72 hours following injection and can last for several weeks. […] This paradigm also may be conducted with a multiple dosing or a prophylactic dosing regime designed to alter the course of hyperalgesia development. This test predicts the analgesic, anti-allodynic and antihyperalgesic effect of numerous effective clinical agents, including NSAIDS such as acetaminophen, aspirin and ibuprofen, and opioids such as morphine.
Each rat was placed in a test chamber on a warm glass surface and allowed to acclimate for approximately 10 minutes. A radiant thermal stimulus (beam of light) was then focused through the glass onto the plantar surface of each hind paw in turn. The thermal stimulus was automatically shut off by a photoelectric relay when the paw was moved or when the cut-off time was reached (20 seconds for radiant heat at ˜5 Amps). An initial (baseline) response latency to the thermal stimulus was recorded for each animal prior to the injection of CFA. Twenty-four hours following intraplantar CFA injection, the response latency of the animal to the thermal stimulus was then re-evaluated and compared to the animal's baseline response time. […] Immediately following the post-CFA latency assessment, test compound or vehicle (usually Solutol, hydroxypropyl methylcellulose, hydroxypropyl beta-cyclodextrin or PEG-400) was administered i.p. or p.o. to rats. […] The percent reversal (% R) of hypersenstivitiy was calculated according to the following formula: % Reversal=(Treatment Response−CFA Response)/(Baseline Response−CFA Response)×100.

[2] = molecular target: T1, canine TRPM8 (Canis lupus familiaris, UniProt Q1A7N1); assay: In vitro canine TRPM8 functional assay (Ca2+-sensitive dye, icilin activation; Table 4 TRPM8 Screening); type: cell-based; conditions: HEK293 cells expressing canine TRPM8, icilin activation; for % I (0.5 μM): compound at 0.5 μM
T1 construct: expressed in transfected cells
Protocol: The functional activity of compounds of Formula (I) was determined by measuring changes in intracellular calcium concentration using a Ca^2+-sensitive fluorescent dye. The changes in fluorescent signal were monitored by a fluorescence plate reader, either a FLIPR™ (Molecular Devices) or FDSS (Hamamatsu).
HEK293 cells stably expressing canine TRPM8 were routinely grown as monolayers in Dulbecco's minimum essential medium supplemented with 10% FBS, 1 mM L-glutamine, 100 units/mL penicillin, 100 ug/mL streptomycin and 400 μg/mL G418. Cells were maintained in 5% CO2 at 37° C. At 24 hrs prior to assay, cells were seeded in clear-base poly-D-lysine coated 384-well plates (BD Biosciences, NJ, USA) at a density of 5,000 cells per well in culture medium and grown overnight in 5% CO2 at 37° C. On assay day, growth media was removed and cells were loaded with Calcium 3 Dye (Molecular Devices) for 35 min at 37° C., under 5% CO2 and then for 25 min at room temperature and atmosphere. Subsequently, cells were tested for agonist-induced increases in intracellular Ca^2+ levels using FLIPR™ or FDSS. Cells were challenged with a compound of Formula (I) (at varying concentrations) and intracellular Ca^2+ was measured for 5 min prior to the addition of icilin to all wells to achieve a final concentration which produces approximately an 80% maximal response.
Basal FI was subtracted prior to normalizing data to percent of maximal response. Curves were generated using the average of quadruplicate wells for each data point, were analyzed using nonlinear regression of either sigmoidal dose response or sigmoidal dose response (variable slope). Finally, the EC50 and IC50 values were calculated with the best-fit dose curve determined by GraphPad Prism.

[3] = test system: rats; assay: Reversal of icilin-induced behaviors in rats; type: in vivo, rat; conditions: 30 mg/kg p.o., 1 h post-icilin
Protocol: In this paradigm, icilin-induced shaking was counted for 10 minutes followed by administration of a compound of Formula (I). The diminution of shaking behavior is represented as a percent inhibition relative to icilin-induced shakes in the absence of test compound administration, as described by the following formula: % Inhibition=[1−(WDS count following test compound dose/WDS count prior to test compound dose)]×100.

[4] = test system: male SD rats; assay: Chronic constriction injury (CCI)-induced model of neuropathic pain, acetone-induced hypersensitivity; type: in vivo, rat; conditions: 30 mg/kg p.o., preRx 1 hr
Protocol: Through the mesh floor a series of five applications of acetone (0.05 mL/application) was sprayed onto the bottom of the paw using a multidose syringe device. A positive response took the form of an abrupt withdrawal or lifting of the paw. The percentage of positive responses from the five trials represented the individual's overall response that was then averaged over the entire treatment group. […] An ascending dose response relationship (as in Table 10 below) was generated by addition of successive doses of test compound followed by re-assessment of behavior.

[5] = molecular target: T1, canine TRPM8; assay: TRPM8 patch clamp assays; type: cell-based; conditions: whole-cell patch clamp, HEK293
Protocol: For patch clamp experiments, HEK293 cells stably transfected with canine TRPM8 were cultured in DMEM supplemented with 10% fetal bovine serum, 100 units/ml penicillin, 100 μg/ml streptomycin and 1 mg/ml G418. Cells were maintained at 37° C. and in 5% CO2.
The extracellular solution contained (in mM): NaCl, 132; EGTA, 1; KCl, 5.4; MgCl2, 0.8; HEPES, 10; glucose, 10; pH=7.4. Recordings were performed using the conventional whole-cell patch clamp technique, 1-2 days after plating cells onto glass coverslips at densities appropriate for single cell recording. Currents were amplified by a patch clamp amplifier and filtered at 2 kHz (Axopatch 200B, Molecular Devices, Union City, Calif.). Menthol (100 μM) was applied to the cell at 0.5 ml/min via a gravity-fed perfusion system. […]
In experiments where temperatures were varied, temperature ramps were generated by cooling the perfusate in an in-line cooler (Model SC-20, Warner Instruments, Hamden, Conn.) controlled by a temperature controller (Model CL-100, Warner Instruments). The temperature in the vicinity of the recorded cell was measured with a custom-made miniature thermo-microprobe connected to a monitoring thermometer (Model TH-8, Physitemp, Clifton, N.J.), and sampled using Digidata 1322A and pClamp 9.0 (Molecular Devices), as were the currents concurrently measured in the whole-cell patch clamp mode. […]

T1 sequence (Q1A7N1 1-1104): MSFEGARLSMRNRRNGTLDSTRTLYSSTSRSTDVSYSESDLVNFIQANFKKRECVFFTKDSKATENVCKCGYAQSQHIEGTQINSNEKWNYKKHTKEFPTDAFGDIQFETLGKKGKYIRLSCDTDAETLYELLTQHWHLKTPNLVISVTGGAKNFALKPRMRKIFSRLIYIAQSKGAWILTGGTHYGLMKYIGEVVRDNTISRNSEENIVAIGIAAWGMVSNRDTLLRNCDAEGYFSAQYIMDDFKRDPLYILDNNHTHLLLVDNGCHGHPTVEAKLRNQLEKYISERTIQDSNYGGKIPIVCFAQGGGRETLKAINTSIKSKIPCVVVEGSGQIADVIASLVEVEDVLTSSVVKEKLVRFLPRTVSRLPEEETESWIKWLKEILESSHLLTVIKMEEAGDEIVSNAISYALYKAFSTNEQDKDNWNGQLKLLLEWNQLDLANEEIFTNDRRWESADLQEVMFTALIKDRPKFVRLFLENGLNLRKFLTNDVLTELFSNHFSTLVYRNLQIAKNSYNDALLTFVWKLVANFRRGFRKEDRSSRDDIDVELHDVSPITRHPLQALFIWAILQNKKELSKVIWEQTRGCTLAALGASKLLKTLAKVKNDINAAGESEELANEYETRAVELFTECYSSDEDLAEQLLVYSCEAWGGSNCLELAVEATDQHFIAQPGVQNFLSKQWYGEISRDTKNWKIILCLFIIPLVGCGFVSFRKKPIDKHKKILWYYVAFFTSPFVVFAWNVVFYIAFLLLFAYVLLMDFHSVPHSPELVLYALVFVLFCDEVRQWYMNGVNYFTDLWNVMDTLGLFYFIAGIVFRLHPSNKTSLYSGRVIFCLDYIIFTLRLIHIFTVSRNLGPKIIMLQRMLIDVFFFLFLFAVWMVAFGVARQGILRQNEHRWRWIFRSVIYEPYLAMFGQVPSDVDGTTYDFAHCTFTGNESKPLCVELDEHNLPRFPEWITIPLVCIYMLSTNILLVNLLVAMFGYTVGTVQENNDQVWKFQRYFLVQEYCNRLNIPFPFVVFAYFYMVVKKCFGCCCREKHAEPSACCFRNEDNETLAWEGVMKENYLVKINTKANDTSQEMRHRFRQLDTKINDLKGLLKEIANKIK

Row | Compound | % Reversal ([1]; time 2 h) [%] | % I (0.5 μM) [2] | % Reversal ([1]; time 1 h) [%] | other results
1 | (S)-[1-(3-Bromo-benzo[b]thiophen-2-yl)-2-(4-trifluoromethoxy-phenyl)-ethyl]-phosphonic acid diisopropyl ester [Cpd 236] | 25 |  |  | 
2 | CCOP(=O)(OCC)C(Cc1ccc(F)c(C(F)(F)F)c1)c1sc2ccccc2c1Cl (racemic) [Cpd 298] |  | 99% | 20 | 
3 | CC(C)OP(=O)(OC(C)C)C(Cc1ccc(F)cc1)c1sc2ccccc2c1Br (centres unmarked) [Cpd 197] | 23 |  |  | % I (1 μM) ([2]; compound at 1 μM): 100%
4 | CCOP(=O)(OCC)C(Cc1ccc(SC)cc1)c1sc2ccccc2c1Cl (racemic) [Cpd 299] |  |  | 23 | 
5 | (S)-[1-(3-Bromo-benzo[b]thiophen-2-yl)-2-(4-fluoro-phenyl)ethyl]-phosphonic acid diisopropyl ester [Cpd 239] | 36 | 103, 103% |  | IC50 ([2]; eight-point dose-response): 37 nM and 27 nM and 31 nM; % Inhibition [3]: 48.4%; % of Allodynic Baseline [4]: 29.4%; IC50 ([5]; read-out: Cold (10° C.) IC50, mode of activation cold 10° C.): 5.8 nM; IC50 ([5]; read-out: Menthol (100 μM) IC50, mode of activation menthol 100 μM, 22° C.): 3 nM
6 | CC(C)OP(=O)(OC(C)C)C(Cc1ccc(C(F)(F)F)cc1)c1sc2ccccc2c1Br (centres unmarked) [Cpd 336] |  |  | 64 | 
